# Numbered stars: 1 amine (or outer) side, 2 acyl side, 3 side chain; on linkers, the order of the positions; unused ones are H or OH. Bridge positions count the residues as written; N and C are the ends. Square brackets hold non-standard residues; d marks the D form. Ends that are not written are not given here. Peptide text beside a SMILES is read from it. dAbu(3S-yl) = C[C@@H]([C@@H](N[*:1])C(=O)[*:2])[*:3]; pGlu = O=C1CC[C@@H](C(=O)O)N1
# Assays:
# Format in all cases: cell-based
# GAL1R [1] = molecular target: T1, GAL1R (Homo sapiens, UniProt P47211); test: Label-free dynamic mass redistribution assay, SY5Y-R1 cells; set-up: expressed in transfected cells; conditions: GAL1R-expressing SH-SY5Y cells; 1.6 nM to 5 µM
# T1 sequence (P47211 1-349): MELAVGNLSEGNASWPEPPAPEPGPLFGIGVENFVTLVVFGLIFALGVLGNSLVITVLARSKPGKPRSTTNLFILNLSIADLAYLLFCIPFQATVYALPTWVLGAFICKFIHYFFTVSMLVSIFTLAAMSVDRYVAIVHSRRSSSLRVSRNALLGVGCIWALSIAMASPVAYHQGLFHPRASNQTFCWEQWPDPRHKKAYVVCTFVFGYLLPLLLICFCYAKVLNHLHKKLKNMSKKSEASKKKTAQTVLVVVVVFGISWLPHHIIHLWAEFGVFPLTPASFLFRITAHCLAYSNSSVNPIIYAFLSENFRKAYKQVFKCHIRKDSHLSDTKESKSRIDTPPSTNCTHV
# Protocol: SH-SY5Y cells stably expressing low levels of either human GAL1R (SY5Y-R1) or GAL2R (SY5Y-R2) and HEK293 cells expressing human GAL3R (HEK-R3) were seeded in EnSpire LFC-[…] well plates (Perkin Elmer) at a concentration of 12,000 cells per well and cultured overnight at 37 °C and 5% CO2. The medium was aspired, and the cells were washed four times with Hank’s balanced salt solution (HBSS) (+ calcium, + magnesium) supplemented with HEPES (20 mM), and the final volume was adjusted to 30 µl per well. The plate was allowed to equilibrate to assay temperature for 1 h in the EnSpire multimode reader (Perkin Elmer). Galanin-(1–30) (GL Biochem) was dissolved and diluted in water. […] A baseline read was first generated by taking 4 measurements before ligands were added. The plate was measured between 30 and 70 repeats, and each treatment was performed in triplicate. […] EC50 values were calculated using Prism 8.2.0 (GraphPad Software Inc.). The values are provided as means of all independent experiments.
# GAL1R [2] = molecular target: T1, GAL1R; test: PathHunter eXpress β-arrestin recruitment assay, GAL1R; set-up: expressed in transfected cells; conditions: Table 3; CHO-K1 cells co-expressing GAL1R and β-arrestin 2; 10 µM to 5 nM; (average) ratio, (n) in cell = number of assays; NA = ratio above 1000
# Protocol: (§1) To evaluate the ability of lanthipeptides to recruit ß-arrestins via GAL1R or via GAL2R, we used the PathHunter® eXpress GAL1R, CHO-K1, β-arrestin GPCR Assay and the PathHunter® eXpress GAL2R, CHO-K1, β-arrestin, GPCR Assay from Eurofins-DiscoverX. The assays were performed according to the manufacturer’s instructions. Briefly, for one assay, CHO-K1 cells co-expressing GAL1R or GAL2R and β-arrestin (isoform 2) were diluted in AssayComplete™ Cell Plating Reagent, and 100 µl was seeded into each well of a 96-well plate. The plate was incubated at 37 °C, 5% CO2 in a humidified incubator. A serial 3 × dilution of the lanthipeptides in water was made (10 µM to 5 nM). After 48 h of incubation, 10 µl of the serial dilutions was applied to the cells in duplicate. The agonists were incubated for 90 min at 37 °C. Next, 55 µL of Working Detection Solution was added, and after 1 h of incubation at room temperature in the dark, the chemiluminescent signal was read with a Synergy HT Biotek reader.
# GAL2R [3] = molecular target: T2, GAL2R (Homo sapiens, UniProt O43603); test: PathHunter eXpress β-arrestin recruitment assay, GAL2R; set-up: expressed in transfected cells; conditions: Table 3; CHO-K1 cells co-expressing GAL2R and β-arrestin 2; 10 µM to 5 nM; (average) ratio, (n) in cell = number of assays; NA = ratio above 1000
# T2 sequence (O43603 1-387): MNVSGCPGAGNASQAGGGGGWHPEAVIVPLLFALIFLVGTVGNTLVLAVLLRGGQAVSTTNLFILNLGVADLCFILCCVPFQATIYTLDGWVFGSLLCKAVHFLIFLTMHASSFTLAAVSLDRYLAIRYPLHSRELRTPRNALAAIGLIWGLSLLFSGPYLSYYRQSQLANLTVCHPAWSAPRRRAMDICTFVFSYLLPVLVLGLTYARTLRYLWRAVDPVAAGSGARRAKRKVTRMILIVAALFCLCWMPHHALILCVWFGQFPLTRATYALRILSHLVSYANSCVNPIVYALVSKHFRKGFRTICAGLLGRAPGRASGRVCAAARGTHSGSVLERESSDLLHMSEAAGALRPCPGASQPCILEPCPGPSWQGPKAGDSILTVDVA
# Protocol: as §1
# GAL2R [4] = molecular target: T2, GAL2R; test: Fluo-4 Direct calcium assay (Ca efflux) in HEK293 cells overexpressing GAL2R; conditions: Table 3; HEK293 cells stably overexpressing GAL2R; Fluo-4, from 10 µM; (average) ratio, (n) in cell = number of assays; NA = ratio above 1000
# Protocol: Calcium efflux was measured by using a Fluo-4 Direct Calcium Assay purchased from Thermo Fisher Scientific. HEK293 cells with stable overexpression of GAL2R (HEKR2) (kindly provided by Harald Dargatz, Molecular, Cellular and Pharmacobiology Section, Institute of Pharmaceutical Biology, University of Bonn, 53,115 Bonn, Germany) were used for analysis of the lanthipeptides. HEKR2 cells were seeded in a 96-well plate and grown overnight in DMEM supplemented with 10% FBS, 1% penicillin–streptomycin, 100 µg/ml Normocin, and 500 µg/ml G418 at 37 °C, 5% CO2 in a humidified incubator.
# The next day, when the cells were nearly confluent, an equal amount of 2 × Fluo-4 Direct™ calcium reagent loading solution, containing 5 mM probenecid, was added to the wells, and the plate was incubated for 1 h at 37 °C. A serial 3 × dilution of the agonist compound in water was made, and 10 µl of the serial dilutions was applied to the cells in duplicate. The starting concentration of agonist in the assay was 10 µM. After 1–2 h of incubation at room temperature, the fluorescence was measured with excitation at 485/20 nm and emission at 528/20 nm with a Synergy HT Biotek reader.
# GAL1R [5] = molecular target: T1, GAL1R; test: cAMP Hunter eXpress GAL1R CHO-K1 GPCR assay (inhibition of forskolin-induced cAMP); set-up: expressed in transfected cells; conditions: Table 3; CHO-K1 cells expressing GAL1R; 20 µM forskolin; 10 µM to 5 nM; (average) ratio, (n) in cell = number of assays; NA = ratio above 1000
# Protocol: To evaluate the ability of lanthipeptides to […] via GAL1R signaling, we used the cAMP Hunter™ eXpress GAL1R CHO-K1 GPCR Assay from Eurofins-DiscoverX. The assay was performed according to the manufacturer’s instructions. Briefly, for one assay, CHO-K1 cells expressing GAL1R were diluted in AssayComplete™ Cell Plating 2 Reagent, and 100 µl was seeded into each well of a 96-well plate. The plate was incubated at 37 °C, 5% CO2 in a humidified incubator. After 24 h of incubation, the media was aspirated, and 45 µl cell assay buffer/antibody mixture was added to all wells. […] Fifteen µl of the serial dilutions was applied in duplicates to the cells. The concentration of forskolin in the assay was 20 µM. The agonists were incubated for 30 min at 37 °C. Next, 15 µL Antibody Solution and 60 μL cAMP Working Detection Solution were added, and the plate was incubated for 1 h in the dark at room temperature. Finally, 60 μL cAMP Solution A was added and, after 3 h of incubation in the dark at room temperature, the chemiluminescent signal was read with a Synergy HT Biotek reader.
Compound,"Stimulation of GAL1R, DMR in SY5YR1 cells (GAL1R [1])","EC50 ratios to Gal-(1-15), GAL1R ß-Arrestin (GAL1R [2])","EC50 ratios to Gal-(1-15), GAL2R ß-Arrestin (GAL2R [3])","EC50 ratios to Gal-(1-15), GAL2R Ca-efflux (GAL2R [4])","EC50 ratios to Gal-(1-15), GAL1R cAMP (GAL1R [5])"
CC(C)C[C@H](NC(=O)[C@H](CC(C)C)NC(=O)[C@H](Cc1ccc(O)cc1)NC(=O)CNC(=O)[C@H](C)NC(=O)[C@H](C)NC(=O)[C@H](CC(N)=O)NC(=O)[C@H](CC(C)C)NC(=O)[C@H](CC(N)=O)NC(=O)[C@H](Cc1c[nH]c2ccccc12)NC(=O)[C@@H]1CCC(=O)N1)C(=O)N[C@@H](C)C(=O)N[C@H]1C(=O)N[C@@H](Cc2c[nH]cn2)C(=O)N[C@@H](C)C(=O)N[C@H](C(=O)NCC(=O)N[C@@H](CC(N)=O)C(=O)N[C@@H](Cc2c[nH]cn2)C(=O)N[C@@H](CCCNC(=N)N)C(=O)O)CS[C@H]1C [Variant M50b] ([pGlu]WNLNAAGYLLA[dAbu(3S-yl)]HACGNHR-OH; thioether 13-16; C-terminus assumed),"stimulate GAL2R only, not GAL1R",NA (1) (NA is not active; ratios above 1000 were considered to be not active),4.7 (3),2.8 (3),NA (2) (NA is not active; ratios above 1000 were considered to be not active)
"GWNLNAAGYLLGPTAVC (also: sidechain bridge or staple (positions not given here)) [Variant M85, methyllanthionine-containing galanin variant produced in L. lactis]",–,18.0 (1),6.2 (1),4.7 (1),11.6 (1)
"[pGlu]WNLNAAGYLLGATAVC (also: sidechain bridge or staple (positions not given here)) [Variant M91, pyroglutamate- and methyllanthionine-containing galanin variant]",–,3 (1),1.5 (1),1.3 (1),NA (1) (NA is not active; ratios above 1000 were considered to be not active)
"[pGlu]WNLNAAGYLLGATAVCNH (also: sidechain bridge or staple (positions not given here)) [Variant M54tr, pyroglutamate- and methyllanthionine-containing galanin variant]",–,NA (1) (NA is not active; ratios above 1000 were considered to be not active),1 (1),1.2 (2),16 (1)
"[pGlu]WNLNAAGYLLGATAVGCHR (also: sidechain bridge or staple (positions not given here)) [Variant M76b, pyroglutamate- and methyllanthionine-containing galanin variant]",–,9.6 (1),0.5 (1),1.0 (1),12.2 (1)
"[pGlu]WNLNAAGYLLGPHTVGCHR (also: sidechain bridge or staple (positions not given here)) [Variant M83, pyroglutamate- and methyllanthionine-containing galanin variant]",–,123 (1),78 (1),7.3 (1),NA (1) (NA is not active; ratios above 1000 were considered to be not active)
"[pGlu]WNLNAAGYLLGPTAVC (also: sidechain bridge or staple (positions not given here)) [Variant M87, pyroglutamate- and methyllanthionine-containing galanin variant]",–,260 (1),4.8 (1),1.9 (2),NA (1) (NA is not active; ratios above 1000 were considered to be not active)

# — article PMC8804135 (Neurotherapeutics, 2021)
